Measurements as given in US8598114B2, “Antimicrobial compounds” (priority 2007, dated 2013).

How the values were obtained:
Aspergillus niger = experiment: MIC, CLSI microbroth dilution (filamentous fungi); assay type: cell-based; design: unit not given beside the values; details: Aspergillus niger - G.R. Micro collection
Protocol: (§1) M38-A Vol. 22 No. 16 Reference Method for Broth Dilution Antifungal Susceptibility Testing of Filamentous Fungi; Approved Standard.
(§2) Yeast and filamentous fungal MIC were performed in MOPS buffered RPMI 1640 medium (MOPS buffer obtained from Sigma Aldrich Ltd., RPMI 1640 obtained from Invitrogen Ltd, Paisley, Scotland). The yeast inocula were in the range 7.5×10^2-4×10^3 CFU/mL and the filamentous fungi approximately 8×10^3-1×10^5CFU/mL

[1] = system: Trichophyton interdigitale; experiment: MIC, CLSI microbroth dilution (filamentous fungi); assay type: cell-based; design: unit not given beside the values; details: Trichophyton interdigitale - G.R. Micro collection
Protocol: as §1, §2

[2] = system: Trichophyton mentagrophytes; experiment: MIC, CLSI microbroth dilution (filamentous fungi); assay type: cell-based; design: unit not given beside the values; details: Trichophyton mentagrophytes - G.R. Micro collection
Protocol: as §1, §2

Enterobacter sp = experiment: MIC, CLSI microbroth dilution (aerobic bacteria); assay type: cell-based; design: unit not given beside the values
Text: (§3) Cation-adjusted Mueller-Hinton broth (Oxoid Ltd., Basingstoke, UK and Trek Diagnostic Systems Ltd., East Grinstead, UK) (supplemented with 5% laked horse blood for Streptococcus spp., Corynebacterium jeikeium and Listeria monocytogenes) was used for aerobic bacteria, with an initial inoculum of approximately 10^5 colony-forming units (CFU)/mL.

Group C Streptococcus = experiment: MIC, CLSI microbroth dilution (aerobic bacteria); assay type: cell-based; design: unit not given beside the values
Text: as §3

Group G Streptococcus = experiment: MIC, CLSI microbroth dilution (aerobic bacteria); assay type: cell-based; design: unit not given beside the values
Text: as §3

Klebsiella aerogenes = experiment: MIC, CLSI microbroth dilution (aerobic bacteria); assay type: cell-based; design: unit not given beside the values
Text: as §3

Listeria monocytogenes = experiment: MIC, CLSI microbroth dilution (aerobic bacteria); assay type: cell-based; design: unit not given beside the values; details: Listeria monocytogenes - antibiotic-susceptible clinical isolate
Text: as §3

Moraxella catarrhalis = experiment: MIC, CLSI microbroth dilution (aerobic bacteria); assay type: cell-based; design: unit not given beside the values
Text: as §3

Morganella morganii = experiment: MIC, CLSI microbroth dilution (aerobic bacteria); assay type: cell-based; design: unit not given beside the values; details: Morganella morganii - multi-drug resistant clinical isolate
Text: as §3

Salmonella sp = experiment: MIC, CLSI microbroth dilution (aerobic bacteria); assay type: cell-based; design: unit not given beside the values
Text: as §3

Shigella sp = experiment: MIC, CLSI microbroth dilution (aerobic bacteria); assay type: cell-based; design: unit not given beside the values; details: Shigella sp - antibiotic-susceptible clinical isolate
Text: as §3

[3] = system: Staphylococcus epidermidis; experiment: MIC, CLSI microbroth dilution (aerobic bacteria); assay type: cell-based; design: unit not given beside the values
Text: as §3

[4] = system: Staphylococcus saprophyticus; experiment: MIC, CLSI microbroth dilution (aerobic bacteria); assay type: cell-based; design: unit not given beside the values; details: Staphylococcus saprophyticus - antibiotic susceptible clinical isolate
Text: as §3

[5] = system: Stenotrophomonas maltophilia; experiment: MIC, CLSI microbroth dilution (aerobic bacteria); assay type: cell-based; design: unit not given beside the values; details: Stenotrophomonas maltophilia - antibiotic-susceptible clinical isolate
Text: as §3

Streptococcus agalactiae = experiment: MIC, CLSI microbroth dilution (aerobic bacteria); assay type: cell-based; design: unit not given beside the values
Text: as §3

Streptococcus bovis = experiment: MIC, CLSI microbroth dilution (aerobic bacteria); assay type: cell-based; design: unit not given beside the values
Text: as §3

[6] = system: Streptococcus constellatus; experiment: MIC, CLSI microbroth dilution (aerobic bacteria); assay type: cell-based; design: unit not given beside the values
Text: as §3

Streptococcus mitis = experiment: MIC, CLSI microbroth dilution (aerobic bacteria); assay type: cell-based; design: unit not given beside the values
Text: as §3

Streptococcus oralis = experiment: MIC, CLSI microbroth dilution (aerobic bacteria); assay type: cell-based; design: unit not given beside the values
Text: as §3

Streptococcus pneumoniae = experiment: MIC, CLSI microbroth dilution (aerobic bacteria); assay type: cell-based; design: unit not given beside the values
Text: as §3

Streptococcus pyogenes = experiment: MIC, CLSI microbroth dilution (aerobic bacteria); assay type: cell-based; design: unit not given beside the values
Text: as §3

Streptococcus sanguis = experiment: MIC, CLSI microbroth dilution (aerobic bacteria); assay type: cell-based; design: unit not given beside the values
Text: as §3

trypsin = experiment: in vitro; assay type: in vitro ADME; details: pH 8.6
Protocol: Measurements and Calculation of Peptide Half-Life
Each peptide was dissolved in a 0.1 M NH4HCO3 buffer (pH 6.5) to yield a final peptide concentration of 1 mg/ml. A trypsin solution was prepared by dissolving 1 mg of trypsin in 50 ml 0.1 M NH4HCO3 buffer (pH 8.2). For the stability determination, 250 μl freshly made trypsin solution and 250 μl peptide solution were incubated in 2 ml of 0.1 M NH4HCO3 buffer (pH 8.6) at 37° C. on a rocking table. Aliquots of 0.5 ml were sampled at different time intervals, diluted with 0.5 ml water:acetonitrile (60:40 v/v) containing 1% TFA and analysed by RP-HPLC as described above. Samples without trypsin addition taken at 0 h and after 20 h at 37° C. were used as negative controls. Integration of the peak area at 254 nm for samples taken during the first 5 hours of the assay was used to generate the τ1/2.

`N=C(N)NCCCC(N)C(=O)NC(Cc1ccc(-c2ccc3ccccc3c2)cc1)C(=O)NC(CCCNC(=N)N)C(=O)NCCc1ccccc1` (stereo not drawn) [Compound 1] showed an MIC (Aspergillus niger) of 4, an MIC [1] of 8 and an MIC [2] of 16. The MIC (Enterobacter sp; Enterobacter sp - antibiotic-susceptible clinical isolate) was 32, the MIC (Enterobacter sp; Enterobacter sp - multi-drug resistant clinical isolate) was 64 and the MIC (Group C Streptococcus; Group C Streptococcus - antibiotic-susceptible clinical isolate) was 32. It also gave an MIC (Group C Streptococcus; Group C Streptococcus - macrolide-resistant clinical isolate) of 64, an MIC (Group G Streptococcus; Group G Streptococcus - antibiotic-susceptible clinical isolate) of 32 and an MIC (Group G Streptococcus; Group G Streptococcus - macrolide-resistant clinical isolate) of 32. It also gave an MIC (Klebsiella aerogenes; Klebsiella aerogenes - multi-drug resistant clinical isolate) of 64, an MIC (Klebsiella aerogenes; Klebsiella aerogenes NCTC11228 - antibiotic-susceptible type strain) of 32 and an MIC (Listeria monocytogenes) of 32. The MIC (Moraxella catarrhalis; Moraxella catarrhalis - reduced fluoroquinolone susceptibility clinical) was 8, the MIC (Moraxella catarrhalis; Moraxella catarrhalis - β-lactamase positive clinical isolate) was 4 and the MIC (Morganella morganii) was “≧128”. For the same compound, the MIC (Salmonella sp; Salmonella sp - antibiotic-susceptible clinical isolate) was 16, the MIC (Salmonella sp; Salmonella sp - multi-drug resistant clinical isolate) was 16 and the MIC (Shigella sp) was 32. For the same compound, the MIC ([3]; Staphylococcus epidermidis antibiotic susceptible clinical isolate) was 16, the MIC ([3]; Staphylococcus epidermidis methicillin-resistant clinical isolate) was 2 and the MIC [4] was 1. The MIC [5] was 64, the MIC (Streptococcus agalactiae; Streptococcus agalactiae - antibiotic-susceptible clinical isolate) was 16 and the MIC (Streptococcus agalactiae; Streptococcus agalactiae - macrolide-resistant clinical isolate) was 32. It also gave an MIC (Streptococcus bovis; Streptococcus bovis - antibiotic-susceptible clinical isolate) of 64, an MIC (Streptococcus bovis; Streptococcus bovis - macrolide-resistant clinical isolate) of 8 and an MIC ([6]; Streptococcus constellatus - antibiotic-susceptible clinical isolate) of 64. The MIC ([6]; Streptococcus constellatus - macrolide-resistant clinical isolate) was 64, the MIC (Streptococcus mitis; Streptococcus mitis - antibiotic-susceptible clinical isolate) was 64 and the MIC (Streptococcus mitis; Streptococcus mitis - macrolide-resistant clinical isolate) was “≧128”. For the same compound, the MIC (Streptococcus oralis; Streptococcus oralis - antibiotic-susceptible clinical isolate) was 64, the MIC (Streptococcus oralis; Streptococcus oralis - macrolide-resistant clinical isolate) was 32 and the MIC (Streptococcus pneumoniae; Streptococcus pneumoniae - ATCC 49619 antibiotic-susceptible control) was 32. For the same compound, the MIC (Streptococcus pneumoniae; Streptococcus pneumoniae - multi-drug resistant clinical isolate) was 64, the MIC (Streptococcus pneumoniae; Streptococcus pneumoniae - penicillin-resistant clinical isolate) was 32 and the MIC (Streptococcus pneumoniae; Streptococcus pneumoniae - penicillin-susceptible clinical isolate) was 64. The MIC (Streptococcus pneumoniae; Streptococcus pneumoniae -penicillin-intermediate clinical isolate) was 32, the MIC (Streptococcus pyogenes; Streptococcus pyogenes - Macrolide (M-type) resistance clinical isolate) was 32 and the MIC (Streptococcus pyogenes; Streptococcus pyogenes - Macrolide (MLS) resistant clinical isolate) was 32. The MIC (Streptococcus sanguis; Streptococcus sanguis - antibiotic-susceptible clinical isolate) was 64, the MIC (Streptococcus sanguis; Streptococcus sanguis - macrolide-resistant clinical isolate) was 32 and the half-life at 0.1 mg/ml (trypsin) was greater than 24 h.
